Experiment in all cases: Kinase binding assay (kinase-tagged T7 phage, affinity beads, qPCR), Kd
Test [1] addresses T1, FGFR2 (Homo sapiens, UniProt P21802).
T1 construct: made in house; host or cells: E. coli (BL21-derived), T7 phage
The settings on record: read-out: FGFR2 (Kd nM). The essentials:
(§1)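 Phage-tagged kinase capture on small-molecule affinity resin, compound competition, qPCR quantitation; Kd from Levenberg-Marquardt Hill fit.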

The target of test [2] is T2, FGFR1 (Homo sapiens, UniProt P11362).
T2 construct: made in house; host or cells: E. coli (BL21-derived), T7 phage
Particulars: read-out: FGFR1 (Kd nM). Summed up:
as §1

Test [3] deals with T3, FGFR3 (V555M) (Homo sapiens, UniProt P22607, V555M).
T3 construct: made in house; host or cells: E. coli (BL21-derived), T7 phage
Particulars: V555M mutant; read-out: FGFR3 (V555M) (Kd nM). The essentials:
as §1

In test [4] the target is T4, FGFR4 (Homo sapiens, UniProt P22455).
T4 construct: made in house; host or cells: E. coli (BL21-derived), T7 phage
The settings on record: read-out: FGFR4 (Kd nM). Summed up:
as §1

Test [5] has as its target T5, FGFR3 (Homo sapiens, UniProt P22607).
T5 construct: made in house; host or cells: E. coli (BL21-derived), T7 phage
Particulars: read-out: FGFR3 (Kd nM). The essentials:
as §1

T3 sequence (P22607 23-806 V555M): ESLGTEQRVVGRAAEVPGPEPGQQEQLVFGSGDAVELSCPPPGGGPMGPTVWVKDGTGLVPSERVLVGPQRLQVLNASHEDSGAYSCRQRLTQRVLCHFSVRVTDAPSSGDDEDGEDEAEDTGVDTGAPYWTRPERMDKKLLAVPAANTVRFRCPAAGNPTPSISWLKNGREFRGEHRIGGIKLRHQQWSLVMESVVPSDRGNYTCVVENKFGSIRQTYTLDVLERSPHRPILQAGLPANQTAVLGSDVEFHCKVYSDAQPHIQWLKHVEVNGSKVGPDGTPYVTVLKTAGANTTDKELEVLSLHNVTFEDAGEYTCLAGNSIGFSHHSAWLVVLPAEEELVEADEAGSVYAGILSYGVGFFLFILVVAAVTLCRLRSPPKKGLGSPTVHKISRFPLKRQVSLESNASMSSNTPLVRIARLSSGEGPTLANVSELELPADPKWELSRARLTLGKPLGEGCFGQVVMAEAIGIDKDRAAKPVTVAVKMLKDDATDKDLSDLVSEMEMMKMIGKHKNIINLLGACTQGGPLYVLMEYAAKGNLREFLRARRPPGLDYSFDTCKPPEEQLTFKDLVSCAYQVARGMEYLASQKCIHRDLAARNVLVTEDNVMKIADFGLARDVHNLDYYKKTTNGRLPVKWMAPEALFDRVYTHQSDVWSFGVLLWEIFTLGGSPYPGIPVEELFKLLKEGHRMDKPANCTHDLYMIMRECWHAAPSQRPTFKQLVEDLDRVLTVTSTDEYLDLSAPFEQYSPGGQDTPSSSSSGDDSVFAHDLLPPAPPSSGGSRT
T2 sequence (P11362 22-822): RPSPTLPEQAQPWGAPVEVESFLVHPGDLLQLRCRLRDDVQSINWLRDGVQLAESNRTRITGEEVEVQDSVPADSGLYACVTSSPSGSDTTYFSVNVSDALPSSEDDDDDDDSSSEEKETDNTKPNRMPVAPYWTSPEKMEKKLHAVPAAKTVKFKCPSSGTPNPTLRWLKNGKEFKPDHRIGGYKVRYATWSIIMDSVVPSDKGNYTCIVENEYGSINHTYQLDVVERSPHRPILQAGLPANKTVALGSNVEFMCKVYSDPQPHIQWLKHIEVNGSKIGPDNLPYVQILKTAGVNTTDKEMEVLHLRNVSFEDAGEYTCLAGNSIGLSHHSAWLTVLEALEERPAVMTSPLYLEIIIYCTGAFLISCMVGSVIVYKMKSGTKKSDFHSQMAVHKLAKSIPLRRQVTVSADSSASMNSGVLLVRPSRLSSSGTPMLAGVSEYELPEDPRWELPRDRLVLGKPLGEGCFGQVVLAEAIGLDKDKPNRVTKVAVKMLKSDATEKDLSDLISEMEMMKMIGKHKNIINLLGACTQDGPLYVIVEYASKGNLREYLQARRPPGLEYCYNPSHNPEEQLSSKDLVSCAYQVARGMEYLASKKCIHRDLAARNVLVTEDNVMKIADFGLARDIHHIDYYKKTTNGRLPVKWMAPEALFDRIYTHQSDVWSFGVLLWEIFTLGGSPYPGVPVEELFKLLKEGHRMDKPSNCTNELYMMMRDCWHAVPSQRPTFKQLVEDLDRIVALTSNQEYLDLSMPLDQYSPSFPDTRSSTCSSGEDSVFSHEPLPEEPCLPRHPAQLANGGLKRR
T4 sequence (P22455 22-802): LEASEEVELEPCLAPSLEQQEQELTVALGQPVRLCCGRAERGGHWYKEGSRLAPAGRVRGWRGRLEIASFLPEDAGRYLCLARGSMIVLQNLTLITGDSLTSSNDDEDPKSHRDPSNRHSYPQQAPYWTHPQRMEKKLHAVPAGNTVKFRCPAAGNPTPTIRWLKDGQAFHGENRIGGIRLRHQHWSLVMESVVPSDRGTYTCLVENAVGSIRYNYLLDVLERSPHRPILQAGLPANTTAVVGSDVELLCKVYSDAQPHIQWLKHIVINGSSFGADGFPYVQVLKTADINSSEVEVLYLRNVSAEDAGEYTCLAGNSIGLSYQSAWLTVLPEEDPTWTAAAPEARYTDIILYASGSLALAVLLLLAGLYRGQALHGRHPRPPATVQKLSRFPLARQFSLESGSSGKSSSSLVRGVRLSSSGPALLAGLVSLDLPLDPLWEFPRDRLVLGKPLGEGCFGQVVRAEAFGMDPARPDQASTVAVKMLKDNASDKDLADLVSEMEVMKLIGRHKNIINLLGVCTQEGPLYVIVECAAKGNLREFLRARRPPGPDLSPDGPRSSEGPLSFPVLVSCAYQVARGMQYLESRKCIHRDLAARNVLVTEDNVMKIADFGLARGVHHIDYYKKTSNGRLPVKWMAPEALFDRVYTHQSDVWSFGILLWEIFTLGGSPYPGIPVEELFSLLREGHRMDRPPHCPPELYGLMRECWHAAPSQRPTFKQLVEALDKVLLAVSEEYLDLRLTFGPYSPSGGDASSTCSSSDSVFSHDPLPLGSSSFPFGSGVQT
T5 sequence (P22607 23-806): as the sequence (P22607 23-806 V555M) above, with M533V counted along it
T1 sequence (P21802 22-821): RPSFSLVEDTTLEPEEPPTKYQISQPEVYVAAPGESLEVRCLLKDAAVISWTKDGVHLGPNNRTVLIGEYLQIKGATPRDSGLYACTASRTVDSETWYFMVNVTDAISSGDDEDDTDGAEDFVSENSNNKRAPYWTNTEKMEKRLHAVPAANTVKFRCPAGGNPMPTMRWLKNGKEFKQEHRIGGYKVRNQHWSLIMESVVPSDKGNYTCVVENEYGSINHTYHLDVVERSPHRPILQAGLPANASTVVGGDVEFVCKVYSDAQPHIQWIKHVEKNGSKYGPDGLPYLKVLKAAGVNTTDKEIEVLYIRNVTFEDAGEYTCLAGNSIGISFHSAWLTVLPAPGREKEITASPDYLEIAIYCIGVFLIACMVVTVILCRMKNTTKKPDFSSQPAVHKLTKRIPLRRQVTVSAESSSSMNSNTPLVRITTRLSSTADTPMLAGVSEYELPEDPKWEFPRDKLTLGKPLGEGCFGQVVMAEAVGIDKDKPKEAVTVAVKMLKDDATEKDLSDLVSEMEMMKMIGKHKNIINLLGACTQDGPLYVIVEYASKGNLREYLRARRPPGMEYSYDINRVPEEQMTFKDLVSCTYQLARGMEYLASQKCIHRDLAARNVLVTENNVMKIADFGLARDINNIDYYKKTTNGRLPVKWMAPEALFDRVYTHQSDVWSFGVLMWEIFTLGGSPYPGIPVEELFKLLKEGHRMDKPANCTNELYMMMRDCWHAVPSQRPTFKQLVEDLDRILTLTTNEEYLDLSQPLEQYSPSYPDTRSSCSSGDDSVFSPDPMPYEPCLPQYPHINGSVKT

On to `C[C@H](Oc1ccc2[nH]nc(-c3cnc(N4CC(C)(N(C)C)C4)c(F)c3)c2c1)c1c(Cl)cncc1Cl` [Example 201, 1-[5-[5-[(1S)-1-(3,5-dichloro-4-pyridyl)ethoxy]-1H-indazol-3-yl]-3-fluoro-2-pyridyl]-N,N,3-trimethyl-azetidin-3-amine], for which the Kd in test [1] was in the range of 300 to 1000 nM; in test [2], 300 to 1000 nM; in test [3] it was 300 to 1000 nM; in test [4] it was 300 to 1000 nM; in test [5], 50 to 300 nM.

`C[C@@H](Oc1ccc2[nH]nc(-c3cnc(N4CC(C)(CS(C)(=O)=O)C4)nc3)c2c1)c1c(Cl)cncc1Cl` [Example 195, (R)-5-(1-(3,5-dichloro-pyridin-4-yl)ethoxy)-3-(2-(3-methyl-3-((methylsulfonyl)-methyl)azetidin-1-yl)pyrimidin-5-yl)-1H-indazole]: the Kd in test [1], in test [2], in test [3], in test [4] and in test [5] was 1 to 50 nM in each case.

Turning to `COc1cc2[nH]nc(-c3cnc(N4CC(C)(NCCO)C4)nc3)c2cc1O[C@H](C)c1c(Cl)cncc1Cl` [Example 86, (R)-2-((1-(5-(5-(1-(3,5-dichloropyridin-4-yl)ethoxy)-6-methoxy-1H-indazol-3-yl)pyrimidin-2-yl)-3-methylazetidin-3-yl)amino)ethan-1-ol], the Kd in test [1], in test [2], in test [3], in test [4] and in test [5] was 1 to 50 nM throughout.

Regarding `COc1cc2[nH]nc(-c3cnc(N4CC(C)(NCCO)C4)c(F)c3)c2cc1O[C@H](C)c1c(Cl)cncc1Cl` [Example 164, (R)-2-((1-(5-(5-(1-(3,5-dichloro-pyridin-4-yl)ethoxy)-6-methoxy-1H-indazol-3-yl)-3-fluoropyridin-2-yl)-3-methylazetidin-3-yl)amino)ethan-1-ol], the Kd in test [1], in test [2], in test [3], in test [4] and in test [5] was 1 to 50 nM throughout.

As for `C[C@H](Oc1ccc2[nH]nc(-c3cnc(N4C[C@H](CS(C)(=O)=O)[C@H]4C)c(F)c3)c2c1)c1c(Cl)cncc1Cl` [Example 208, 5-((S)-1-(3,5-dichloropyridin-4-yl)ethoxy)-3-(5-fluoro-6-((2R,3S)-2-methyl-3-((meth-ylsulfonyl)meth-yl)azetidin-1-yl)pyridin-3-yl)-1H-indazole], the Kd was more than 1000 nM in test [1]; more than 1000 nM in test [2]; 50 to 300 nM in test [3]; 300 to 1000 nM in test [4]; 50 to 300 nM in test [5].

In the case of `C[C@@H](Oc1ccc2[nH]nc(-c3cnc(N4CC(C)(N5CCC5)C4)c(F)c3)c2c1F)c1c(Cl)cncc1Cl` [Example 184, (R)-5-(1-(3,5-dichloropyridin-4-yl)ethoxy)-4-fluoro-3-(5-fluoro-6-(3′-methyl-[1,3′-biazetidin]-1′-yl)pyridin-3-yl)-1H-indazole], the Kd in test [1] was 300 to 1000 nM; in test [2] it was 300 to 1000 nM; in test [3], 1 to 50 nM; in test [4], 50 to 300 nM; in test [5], 1 to 50 nM.

For `COc1cc2[nH]nc(-c3cnc(N4CC(C)(CNC(C)C)C4)nc3)c2cc1O[C@H](C)c1c(Cl)cncc1Cl` [Example 84, (R)-N-((1-(5-(5-(1-(3,5-dichloropyridin-4-yl)ethoxy)-6-methoxy-1H-indazol-3-yl)pyrimidin-2-yl)-3-methylazetidin-3-yl)methyl)propan-2-amine], the Kd in test [1], in test [2], in test [3], in test [4] and in test [5] was 1 to 50 nM in each case.

Consider `Cc1ncc(Cl)c([C@@H](C)Oc2ccc3[nH]nc(-c4cnc(N5CC(C)(NC(C)C)C5)c(F)c4)c3c2)c1Cl` [Example 221, 1-[5-[5-[(1R)-1-(3,5-dichloro-2-methyl-4-pyridyl)ethoxy]-1H-indazol-3-yl]-3-fluoro-2-pyridyl]-N-isopropyl-3-methyl-azetidin-3-amine], for which the Kd in test [1], in test [2], in test [3], in test [4] and in test [5] was 1 to 50 nM in each case.

With `COc1cc2[nH]nc(-c3cnc(N4CC5(CC5)C4)c(C#N)c3)c2cc1O[C@H](C)c1c(Cl)cncc1Cl` [Example 3, (R)-5-(5-(1-(3,5-dichloropyridin-4-yl)ethoxy)-6-methoxy-1H-indazol-3-yl)-2-(5-azaspiro[2.3]hexan-5-yl)nicotinonitrile], the Kd in test [1] fell in the range of 300 to 1000 nM; in test [2], 50 to 300 nM; in test [3] it was 1 to 50 nM; in test [4], 1 to 50 nM; in test [5], 1 to 50 nM.

`COc1cc2[nH]nc(-c3cnc(N4CC(C)(CS(C)(=O)=O)C4)c(F)c3)c2cc1O[C@H](C)c1c(Cl)cncc1Cl` [Example 194, (R)-5-(1-(3,5-dichloropyridin-4-yl)ethoxy)-3-(5-fluoro-6-(3-methyl-3-((methyl-sulfonyl)meth-yl)azetidin-1-yl)pyridin-3-yl)-6-methoxy-1H-indazole]: the Kd in test [1], in test [2], in test [3], in test [4] and in test [5] was 1 to 50 nM in each case.

`C[C@@H](Oc1ccc2[nH]nc(-c3ccc(N4CC(C)(NCC(F)F)C4)nc3)c2c1)c1c(Cl)cncc1Cl` [Example 125, 1-[5-[5-[(1R)-1-(3,5-dichloro-4-pyridyl)ethoxy]-1H-indazol-3-yl]-2-pyridyl]-N-(2,2-difluoroethyl)-3-methyl-azetidin-3-amine]: the Kd in test [1], in test [2], in test [3], in test [4] and in test [5] was 1 to 50 nM throughout.

Regarding `C[C@@H](Oc1ccc2[nH]nc(-c3cnc(N4CC(C)(N5CCOCC5)C4)c(C#N)c3)c2c1F)c1c(Cl)cncc1Cl` [Example 327, (R)-5-(5-(1-(3,5-dichloropyridin-4-yl)ethoxy)-4-fluoro-1H-indazol-3-yl)-2-(3-methyl-3-morpholinoazetidin-1-yl)nicotinonitrile], the dissociation constant (Kd) in test [1] is more than 1000 nM; in test [2], more than 1000 nM; in test [3], more than 1000 nM; in test [4] it was 50 to 300 nM; in test [5], more than 1000 nM.

`CNC1(C)CN(c2ccc(-c3n[nH]c4ccc(O[C@H](C)c5c(Cl)cncc5Cl)cc34)cn2)C1` [Example 233, (R)-1-(5-(5-(1-(3,5-dichloropyridin-4-yl)ethoxy)-1H-indazol-3-yl)pyridin-2-yl)-N,3-dimethylazetidin-3-amine]: the dissociation constant (Kd) in test [1], in test [2], in test [3], in test [4] and in test [5] was 1 to 50 nM each time.

Turning to `COc1cc2[nH]nc(-c3cnc(N4CCC4)c(F)c3)c2cc1O[C@H](C)c1c(Cl)cnc(C)c1Cl` [Example 58, 3-[6-(azetidin-1-yl)-5-fluoro-3-pyridyl]-5-[(1R)-1-(3,5-dichloro-2-methyl-4-pyridyl)ethoxy]-6-methoxy-1H-indazole], the Kd in test [1] lay in the range of 1 to 50 nM; in test [2], 50 to 300 nM; in test [3] it was 1 to 50 nM; in test [4] it was 1 to 50 nM; in test [5] it was 1 to 50 nM.

Take `C[C@@H](Oc1ccc2[nH]nc(-c3cnc(N4CC(C)(NCCO)C4)c(C#N)c3)c2c1F)c1c(Cl)cncc1Cl` [Example 324, (R)-5-(5-(1-(3,5-dichloropyridin-4-yl)ethoxy)-4-fluoro-1H-indazol-3-yl)-2-(3-((2-hydroxy-ethyl)amino)-3-methylazetidin-1-yl)nicotinonitrile]: the Kd in test [1] is more than 1000 nM; in test [2] it was more than 1000 nM; in test [3], 300 to 1000 nM; in test [4] it was 1 to 50 nM; in test [5], more than 1000 nM.

In the case of `C[C@@H](Oc1ccc2[nH]nc(-c3cnc(N4CC(C)(CNCCO)C4)c(F)c3)c2c1)c1c(Cl)cncc1Cl` [Example 178, (R)-2-(((1-(5-(5-(1-(3,5-dichloro-pyridin-4-yl)ethoxy)-1H-indazol-3-yl)-3-fluoropyridin-2-yl)-3-methylazetidin-3-yl)methyl)amino) ethanol], the Kd in test [1], in test [2], in test [3], in test [4] and in test [5] was 1 to 50 nM in each case.

In the case of `C[C@H](O)CNC1(C)CN(c2ncc(-c3n[nH]c4ccc(O[C@H](C)c5c(Cl)cncc5Cl)c(F)c34)cc2F)C1` [Example 176, (S)-1-((1-(5-(5-((R)-1-(3,5-dichloropyridin-4-yl)ethoxy)-4-fluoro-1H-indazol-3-yl)-3-fluoropyridin-2-yl)-3-methylazetidin-3-yl)amino)propan-2-ol], the Kd in test [1] was more than 1000 nM; in test [2] it was 300 to 1000 nM; in test [3] it was 50 to 300 nM; in test [4], 50 to 300 nM; in test [5], 50 to 300 nM.

Regarding `COCCN(C)C1(C)CN(c2ncc(-c3n[nH]c4ccc(O[C@H](C)c5c(Cl)cncc5Cl)cc34)cc2F)C1` [Example 85, (R)-1-(5-(5-(1-(3,5-dichloropyridin-4-yl)ethoxy)-1H-indazol-3-yl)-3-fluoropyridin-2-yl)-N-(2-methoxyethyl)-N,3-dimethylazetidin-3-amine], the Kd in test [1], in test [2], in test [3], in test [4] and in test [5] was 1 to 50 nM throughout.

The record behind these values is US20250368666A1, “INDAZOLE COMPOUNDS” (TYRA BIOSCIENCES, INC., priority 2022, published 2025).
